Laboratory results: publication PMC6917776, “Discovery of a chemical probe for PRDM9” (Nature Communications, 2019)
Values joined by “and” are separate entries in the source; they are usually repeats but may differ in a detail not shown here. Equal entries are not always repeated.

How the values were obtained:
PRDM1 = PRDM1 (Homo sapiens, UniProt O75626); experiment: DSF thermal stabilisation, PRDM selectivity; type: binding; details: 250 µM MRK-740; 2 mM SAM
Experimental: (§1) DSF measurements were performed as previously described[21] using a Light Cycler 480 II instrument from Roche Applied Science. All proteins tested in these selectivity experiments were used at final concentration of 0.02 mg mL^−1 in a 0.1 M HEPES, pH 7.5 and 150 mM NaCl buffer in the presence of 2 mM SAM. Sypro Orange was purchased from Invitrogen as a 5000 × stock solution (concentration not specified by vendor) and was diluted 1:1000 to yield a 5 × working concentration. The temperature scan curves were fitted to a Boltzmann sigmoid function, and the Tm values were obtained from the midpoint of the transition.

PRDM16 = PRDM16 (Homo sapiens, UniProt Q9HAZ2); experiment: DSF thermal stabilisation, PRDM selectivity; type: binding; details: 250 µM MRK-740; 2 mM SAM
Sequence of PRDM16 (Q9HAZ2 whole entry): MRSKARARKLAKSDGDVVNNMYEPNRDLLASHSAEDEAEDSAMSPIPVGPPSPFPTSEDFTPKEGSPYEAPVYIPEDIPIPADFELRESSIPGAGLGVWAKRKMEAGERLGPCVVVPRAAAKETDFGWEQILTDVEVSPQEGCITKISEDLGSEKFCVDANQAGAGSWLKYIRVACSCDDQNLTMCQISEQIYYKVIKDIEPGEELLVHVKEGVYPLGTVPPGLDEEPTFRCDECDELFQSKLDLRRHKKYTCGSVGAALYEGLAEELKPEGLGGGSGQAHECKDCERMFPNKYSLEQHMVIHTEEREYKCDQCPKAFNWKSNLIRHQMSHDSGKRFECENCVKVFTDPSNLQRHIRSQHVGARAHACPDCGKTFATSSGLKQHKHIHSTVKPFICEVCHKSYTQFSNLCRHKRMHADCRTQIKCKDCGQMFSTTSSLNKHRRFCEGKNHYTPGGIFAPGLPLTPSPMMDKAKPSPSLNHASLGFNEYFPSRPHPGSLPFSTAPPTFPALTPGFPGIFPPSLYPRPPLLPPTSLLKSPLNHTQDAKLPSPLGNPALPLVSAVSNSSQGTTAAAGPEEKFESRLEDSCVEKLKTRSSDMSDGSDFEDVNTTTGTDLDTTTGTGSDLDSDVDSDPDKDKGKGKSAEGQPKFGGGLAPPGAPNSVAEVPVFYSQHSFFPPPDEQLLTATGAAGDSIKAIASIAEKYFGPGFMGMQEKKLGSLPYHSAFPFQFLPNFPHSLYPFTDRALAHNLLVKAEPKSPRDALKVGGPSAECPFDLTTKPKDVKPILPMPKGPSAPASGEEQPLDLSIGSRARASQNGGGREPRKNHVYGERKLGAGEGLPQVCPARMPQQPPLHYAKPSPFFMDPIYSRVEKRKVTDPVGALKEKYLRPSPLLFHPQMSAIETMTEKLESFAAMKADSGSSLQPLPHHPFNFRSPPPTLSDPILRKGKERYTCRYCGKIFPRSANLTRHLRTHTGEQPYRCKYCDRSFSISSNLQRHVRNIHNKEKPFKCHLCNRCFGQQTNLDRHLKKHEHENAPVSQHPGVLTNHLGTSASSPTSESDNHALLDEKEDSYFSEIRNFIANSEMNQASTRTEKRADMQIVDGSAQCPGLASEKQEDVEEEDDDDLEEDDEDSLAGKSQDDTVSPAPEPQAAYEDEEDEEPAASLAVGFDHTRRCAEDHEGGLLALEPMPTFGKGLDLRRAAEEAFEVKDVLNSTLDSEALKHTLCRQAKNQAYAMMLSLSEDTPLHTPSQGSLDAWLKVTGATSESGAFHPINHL
Experimental: as §1

PRDM3 = PRDM3 (Homo sapiens, UniProt Q03112); experiment: DSF thermal stabilisation, PRDM selectivity; type: binding; details: 250 µM MRK-740; 2 mM SAM
Sequence of PRDM3 (Q03112 whole entry): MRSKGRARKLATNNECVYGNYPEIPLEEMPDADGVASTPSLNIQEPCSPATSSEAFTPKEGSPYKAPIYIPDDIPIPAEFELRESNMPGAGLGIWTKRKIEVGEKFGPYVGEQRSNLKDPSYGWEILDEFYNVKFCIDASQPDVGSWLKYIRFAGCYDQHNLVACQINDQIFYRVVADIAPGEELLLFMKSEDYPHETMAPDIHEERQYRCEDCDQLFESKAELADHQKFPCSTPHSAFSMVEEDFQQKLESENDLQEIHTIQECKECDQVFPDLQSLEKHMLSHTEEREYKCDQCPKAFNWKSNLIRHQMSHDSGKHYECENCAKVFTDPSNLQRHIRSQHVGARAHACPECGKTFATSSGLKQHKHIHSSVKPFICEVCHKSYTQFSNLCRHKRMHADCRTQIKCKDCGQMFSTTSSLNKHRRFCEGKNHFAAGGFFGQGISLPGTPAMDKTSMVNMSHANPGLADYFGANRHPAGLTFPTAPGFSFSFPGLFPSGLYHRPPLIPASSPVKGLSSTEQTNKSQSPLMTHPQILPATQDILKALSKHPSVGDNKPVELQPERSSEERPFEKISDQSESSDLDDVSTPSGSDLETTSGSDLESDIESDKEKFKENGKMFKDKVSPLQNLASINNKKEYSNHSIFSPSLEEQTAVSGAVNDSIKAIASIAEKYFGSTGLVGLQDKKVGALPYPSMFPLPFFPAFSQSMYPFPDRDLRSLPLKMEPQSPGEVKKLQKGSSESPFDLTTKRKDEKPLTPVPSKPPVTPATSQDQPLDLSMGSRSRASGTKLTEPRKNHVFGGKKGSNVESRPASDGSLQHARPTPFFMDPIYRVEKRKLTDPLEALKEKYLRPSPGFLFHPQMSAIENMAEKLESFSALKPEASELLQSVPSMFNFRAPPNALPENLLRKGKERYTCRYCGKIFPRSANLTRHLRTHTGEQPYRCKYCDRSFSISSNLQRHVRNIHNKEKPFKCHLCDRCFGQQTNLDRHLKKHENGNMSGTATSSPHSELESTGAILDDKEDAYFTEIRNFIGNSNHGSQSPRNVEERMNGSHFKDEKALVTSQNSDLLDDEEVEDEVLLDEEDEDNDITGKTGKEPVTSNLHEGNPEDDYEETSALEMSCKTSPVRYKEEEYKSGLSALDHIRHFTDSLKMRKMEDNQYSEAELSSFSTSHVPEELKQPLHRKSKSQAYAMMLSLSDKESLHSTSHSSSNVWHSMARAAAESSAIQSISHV
Experimental: as §1

Muscarinic M2 = biological target: T1, Muscarinic M2 (Homo sapiens, UniProt P08172); experiment: Eurofins Panlabs panel, radioligand binding; details: at 10 µM
T1 construct: NIMH Psychoactive Drug Screening Program, University of North Carolina at Chapel Hill
T1 sequence (P08172 1-466): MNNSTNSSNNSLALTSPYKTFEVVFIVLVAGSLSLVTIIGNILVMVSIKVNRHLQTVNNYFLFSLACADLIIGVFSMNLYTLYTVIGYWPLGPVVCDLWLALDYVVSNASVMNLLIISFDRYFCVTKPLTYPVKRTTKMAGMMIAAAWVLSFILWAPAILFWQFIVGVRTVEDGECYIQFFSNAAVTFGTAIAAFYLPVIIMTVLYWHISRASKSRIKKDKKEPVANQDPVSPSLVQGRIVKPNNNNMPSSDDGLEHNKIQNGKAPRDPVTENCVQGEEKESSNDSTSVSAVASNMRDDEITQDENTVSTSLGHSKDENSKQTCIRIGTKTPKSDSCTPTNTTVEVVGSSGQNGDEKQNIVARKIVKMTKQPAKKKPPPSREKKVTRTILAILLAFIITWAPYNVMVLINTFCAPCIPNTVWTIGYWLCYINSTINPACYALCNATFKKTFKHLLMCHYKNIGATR

Histamine H3 = biological target: T2, Histamine H3 (Homo sapiens, UniProt Q9Y5N1); experiment: GPCR functional activity, GloSensor assay (agonist and antagonist mode); type: cell-based
T2 construct: NIMH Psychoactive Drug Screening Program, University of North Carolina at Chapel Hill
T2 sequence (Q9Y5N1 whole entry): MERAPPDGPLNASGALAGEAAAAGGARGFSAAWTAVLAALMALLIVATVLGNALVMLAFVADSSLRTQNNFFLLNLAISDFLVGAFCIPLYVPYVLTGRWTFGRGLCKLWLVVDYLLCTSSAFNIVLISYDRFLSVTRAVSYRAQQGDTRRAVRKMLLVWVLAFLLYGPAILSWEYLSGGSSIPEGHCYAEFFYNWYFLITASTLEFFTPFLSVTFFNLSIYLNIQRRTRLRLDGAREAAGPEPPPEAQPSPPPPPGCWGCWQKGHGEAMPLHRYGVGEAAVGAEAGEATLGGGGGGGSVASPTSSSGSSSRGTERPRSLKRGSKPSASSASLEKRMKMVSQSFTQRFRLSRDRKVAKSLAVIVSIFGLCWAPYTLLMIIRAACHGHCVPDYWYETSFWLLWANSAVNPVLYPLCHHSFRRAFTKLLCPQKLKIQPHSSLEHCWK
Description: Supplementary Figure 5. Assessment of GPCR functional activity. GloSensor® assay was
profiles were generously provided by the National Institute of Mental Health’s (NIMH)
Psychoactive Drug Screening Program, (Contract # HHSN-271-2013-00017-C) directed by B.L.
Roth, University of North Carolina at Chapel Hill and Project Officer J. Driscoll at NIMH,
Bethesda, Maryland, USA. Further details available at https://pdspdb.unc.edu/pdspWeb/.
MOR stands for “Opiate µ receptor”. […]
[…] Source data are provided as a

MCF7 cells = experiment: Cell growth, IncuCyte ZOOM cell number; type: cell-based; details: for Cell growth (Cell#): MCF7, 5 day treatment, technical replicates
Experimental: HEK293T or MCF7 cells were seeded on 96-well plates and the following day treated with compounds for indicated time. Cell number was determined with Vybrant® DyeCycle™ Green using IncuCyte™ ZOOM live cell imaging device (Essen Bioscence) and analyzed with IncuCyte™ ZOOM (2015A) software.
(top graphs) and MCF7 cells (bottom graph). Cells were treated with compounds for 2 and 4 days or 5 days in case of MCF7. Cell number was measured using IncuCyte™ ZOOM live cell imaging device. The results are MEAN +/- SEM, n=3 (technical replicates). Source data are provided as a Source Data file.
(1 picture or pasted object on this page, not shown here)

Sequence of PRDM1 (O75626 whole entry): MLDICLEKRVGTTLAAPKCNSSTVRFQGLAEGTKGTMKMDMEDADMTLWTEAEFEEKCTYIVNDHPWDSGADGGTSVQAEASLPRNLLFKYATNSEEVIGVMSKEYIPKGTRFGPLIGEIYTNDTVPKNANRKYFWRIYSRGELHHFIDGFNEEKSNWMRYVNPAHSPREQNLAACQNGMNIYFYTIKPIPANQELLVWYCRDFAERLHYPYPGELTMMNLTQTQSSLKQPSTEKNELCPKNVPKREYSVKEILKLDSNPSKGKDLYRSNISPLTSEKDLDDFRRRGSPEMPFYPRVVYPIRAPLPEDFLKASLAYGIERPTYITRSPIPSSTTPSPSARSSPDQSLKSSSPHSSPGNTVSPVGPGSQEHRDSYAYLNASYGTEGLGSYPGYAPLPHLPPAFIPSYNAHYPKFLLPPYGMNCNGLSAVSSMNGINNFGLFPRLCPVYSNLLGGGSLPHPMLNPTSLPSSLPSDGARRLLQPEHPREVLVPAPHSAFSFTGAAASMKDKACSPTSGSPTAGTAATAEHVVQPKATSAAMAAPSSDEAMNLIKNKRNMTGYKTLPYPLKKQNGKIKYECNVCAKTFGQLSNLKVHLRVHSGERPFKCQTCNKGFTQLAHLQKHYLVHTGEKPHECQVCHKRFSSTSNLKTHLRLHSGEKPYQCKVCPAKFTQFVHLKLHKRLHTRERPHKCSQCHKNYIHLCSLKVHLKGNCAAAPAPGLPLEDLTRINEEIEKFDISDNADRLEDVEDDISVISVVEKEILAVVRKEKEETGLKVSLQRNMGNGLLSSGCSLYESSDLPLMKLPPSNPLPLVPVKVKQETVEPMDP

With `COc1cc(OC)cc(-c2noc(N3CCN(C)C4(CCN(c5ccnc(C)c5)CC4)C3)n2)c1` [MRK-740] the “∆ Tm (°C), DSF” value (PRDM1) was -0.458 °C, the “∆ Tm (°C), DSF” value (PRDM16) was -0.225 °C and the “∆ Tm (°C), DSF” value (PRDM3) was -1.3 °C. The Binding (Muscarinic M2) was over 50%, the “Functional activity (in words)” value (Histamine H3) was “no functional activity” and the “MCF7 cell viability (in words)” value (MCF7 cells; 10 µM, 5-day proliferation assay) was “minimal impact on MCF7 cell viability”. For the same molecule, the “Cell growth (Cell#)” value (MCF7 cells; 0.3 µM) was 106.53 % control and 74.2747 % control and 75.9554 % control, the “Cell growth (Cell#)” value (MCF7 cells; 1 µM) was 111.892 % control and 99.8066 % control and 82.4385 % control and the “Cell growth (Cell#)” value (MCF7 cells; 3 µM) was 103.969 % control and 69.7125 % control and 102.608 % control. For the same molecule, the “Cell growth (Cell#)” value (MCF7 cells; 10 µM) was 66.6711 % control and 77.6362 % control and 64.0299 % control and the “Cell growth (Cell#)” value (MCF7 cells; 20 µM) was 36.7371 % control and 35.4566 % control and 42.0196 % control.
